pIC50: −log10 of the molar value.
Tested on: 857933-349-R-J2-PDC complex spheroid viability
Assay: Anticancer human tumor 857933-349-R-J2-PDC patient-derived colon adenocarcinoma cell line growth inhibition [POLQ]
Details: for pIC50: curve of first compound; for viability, T/C: stronger effect = lower value
How it was run: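 Complex spheroid viability model combining PDC tumour cells with endothelial (HUVEC) and MSC stromal cells. Novobiocin, ART-558 or RP6685 were tested singly and in combination with standard and investigational anticancer drugs. Each was titrated in half-log steps from near clinical Cmax, or from 10 microM where Cmax was unknown.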

[1] = second compound 0.0316 µM, first compound 0.0316 µM
[2] = second compound 0.0316 µM, first compound 0.1 µM
[3] = second compound 0.0316 µM, first compound 0.316 µM
[4] = second compound 0.0316 µM, first compound 1 µM
[5] = second compound 0.0316 µM, first compound 3.16 µM
[6] = second compound 0.0316 µM, first compound 10 µM
[7] = second compound 0.1 µM, first compound 0.0316 µM
[8] = second compound 0.1 µM, first compound 0.1 µM
[9] = second compound 0.1 µM, first compound 0.316 µM
[10] = second compound 0.1 µM, first compound 1 µM
[11] = second compound 0.1 µM, first compound 3.16 µM
[12] = second compound 0.1 µM, first compound 10 µM
[13] = second compound 0.316 µM, first compound 0.0316 µM
[14] = second compound 0.316 µM, first compound 0.1 µM
[15] = second compound 0.316 µM, first compound 0.316 µM
[16] = second compound 0.316 µM, first compound 1 µM
[17] = second compound 0.316 µM, first compound 3.16 µM
[18] = second compound 0.316 µM, first compound 10 µM
[19] = second compound 1 µM, first compound 0.0316 µM
[20] = second compound 1 µM, first compound 0.1 µM
[21] = second compound 1 µM, first compound 0.316 µM
[22] = second compound 1 µM, first compound 1 µM
[23] = second compound 1 µM, first compound 3.16 µM
[24] = second compound 1 µM, first compound 10 µM
[25] = second compound 3.16 µM, first compound 0.0316 µM
[26] = second compound 3.16 µM, first compound 0.1 µM
[27] = second compound 3.16 µM, first compound 0.316 µM
[28] = second compound 3.16 µM, first compound 1 µM
[29] = second compound 3.16 µM, first compound 3.16 µM
[30] = second compound 3.16 µM, first compound 10 µM
[31] = second compound 10 µM, first compound 0.0316 µM
[32] = second compound 10 µM, first compound 0.1 µM
[33] = second compound 10 µM, first compound 0.316 µM
[34] = second compound 10 µM, first compound 1 µM
[35] = second compound 10 µM, first compound 3.16 µM
[36] = second compound 10 µM, first compound 10 µM
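Note: spheroids exposed to compounds for seven days before readout.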

With `O=C(Nc1ccc(O)c(NS(=O)(=O)c2ccc(F)cc2)c1)c1ccc(-c2ccccc2)cc1` + Cc1cccc(N(C)C(=O)C2C(O)CCN2c2nc(C)cc(C(F)(F)F)c2C#N)c1 the pIC50 (second compound 0.0316 µM) was < 5.00, the pIC50 (second compound 0.1 µM) was < 5.00 and the pIC50 (second compound 0.316 µM) was < 5.00. For the same compound, the pIC50 (second compound 1 µM) was < 5.00, the pIC50 (second compound 3.16 µM) was < 5.00 and the pIC50 (second compound 10 µM) was < 5.00. It also gave a viability, T/C [1] of 90.2%, a viability, T/C [2] of 85.2% and a viability, T/C [3] of 88.2%. The viability, T/C [4] was 90.6%, the viability, T/C [5] was 90.3% and the viability, T/C [6] was 92.5%. The viability, T/C [7] was 97.7%, the viability, T/C [8] was 86.2% and the viability, T/C [9] was 87%. The viability, T/C [10] was 97.5%, the viability, T/C [11] was 91.9% and the viability, T/C [12] was 90.8%. For the same compound, the viability, T/C [13] was 97.7%, the viability, T/C [14] was 85.5% and the viability, T/C [15] was 97.8%. It also gave a viability, T/C [16] of 93.4%, a viability, T/C [17] of 88.9% and a viability, T/C [18] of 70.8%. The viability, T/C [19] was 99.1%, the viability, T/C [20] was 82% and the viability, T/C [21] was 96.8%. It also gave a viability, T/C [22] of 95.4%, a viability, T/C [23] of 114% and a viability, T/C [24] of 93%. It also gave a viability, T/C [25] of 97.9%, a viability, T/C [26] of 95.9% and a viability, T/C [27] of 97.6%. It also gave a viability, T/C [28] of 93.4%, a viability, T/C [29] of 96.8% and a viability, T/C [30] of 77.7%. For the same compound, the viability, T/C [31] was 95.3%, the viability, T/C [32] was 105% and the viability, T/C [33] was 91%. For the same compound, the viability, T/C [34] was 90%, the viability, T/C [35] was 88.6% and the viability, T/C [36] was 73.8%.
`CC1COCCN1c1cc(C2(S(C)(=N)=O)CC2)nc(-c2ccnc3[nH]ccc23)n1` (stereo unspecified) + Cc1cccc(N(C)C(=O)C2C(O)CCN2c2nc(C)cc(C(F)(F)F)c2C#N)c1 gave a pIC50 (second compound 0.0316 µM) of 5.49, a pIC50 (second compound 0.1 µM) of 5.41 and a pIC50 (second compound 0.316 µM) of 5.57. For the same compound, the pIC50 (second compound 1 µM) was 5.36, the pIC50 (second compound 3.16 µM) was 5.26 and the pIC50 (second compound 10 µM) was 5.32. For the same compound, the viability, T/C [1] was 97.9%, the viability, T/C [2] was 105% and the viability, T/C [3] was 95%. It also gave a viability, T/C [4] of 78.2%, a viability, T/C [5] of 50.4% and a viability, T/C [6] of 36.4%. For the same compound, the viability, T/C [7] was 88.6%, the viability, T/C [8] was 112% and the viability, T/C [9] was 87.4%. For the same compound, the viability, T/C [10] was 76.3%, the viability, T/C [11] was 55.2% and the viability, T/C [12] was 32.5%. For the same compound, the viability, T/C [13] was 75%, the viability, T/C [14] was 81.5% and the viability, T/C [15] was 101%. For the same compound, the viability, T/C [16] was 69.8%, the viability, T/C [17] was 48.7% and the viability, T/C [18] was 35.4%. It also gave a viability, T/C [19] of 92.9%, a viability, T/C [20] of 91.7% and a viability, T/C [21] of 102%. It also gave a viability, T/C [22] of 74.8%, a viability, T/C [23] of 57.4% and a viability, T/C [24] of 36.6%. The viability, T/C [25] was 95.5%, the viability, T/C [26] was 98.2% and the viability, T/C [27] was 84.4%. It also gave a viability, T/C [28] of 78.8%, a viability, T/C [29] of 52.3% and a viability, T/C [30] of 45.8%. For the same compound, the viability, T/C [31] was 80.1%, the viability, T/C [32] was 84.7% and the viability, T/C [33] was 88.6%. The viability, T/C [34] was 72.5%, the viability, T/C [35] was 57.4% and the viability, T/C [36] was 38.2%.
With `COc1cc2cc(C(=O)CCC(=O)O)sc2cc1OC` + Nc1ccc(C#CCN(C(=O)Cc2ncc(C(F)(F)F)cc2C(F)(F)F)c2ccc(F)cc2)nn1 the pIC50 (second compound 0.0316 µM) was < 5.00, the pIC50 (second compound 0.1 µM) was < 5.00 and the pIC50 (second compound 0.316 µM) was < 5.00. The pIC50 (second compound 1 µM) was < 5.00, the pIC50 (second compound 3.16 µM) was < 5.00 and the pIC50 (second compound 10 µM) was < 5.00. It also gave a viability, T/C [1] of 103%, a viability, T/C [2] of 110% and a viability, T/C [3] of 108%. The viability, T/C [4] was 111%, the viability, T/C [5] was 100% and the viability, T/C [6] was 104%. For the same compound, the viability, T/C [7] was 100%, the viability, T/C [8] was 106% and the viability, T/C [9] was 101%. For the same compound, the viability, T/C [10] was 110%, the viability, T/C [11] was 108% and the viability, T/C [12] was 97.5%. The viability, T/C [13] was 96.5%, the viability, T/C [14] was 97.3% and the viability, T/C [15] was 98.2%. The viability, T/C [16] was 92.4%, the viability, T/C [17] was 106% and the viability, T/C [18] was 96%. The viability, T/C [19] was 103%, the viability, T/C [20] was 93.3% and the viability, T/C [21] was 97.5%. It also gave a viability, T/C [22] of 109%, a viability, T/C [23] of 110% and a viability, T/C [24] of 89.1%. The viability, T/C [25] was 102%, the viability, T/C [26] was 98.7% and the viability, T/C [27] was 90.7%. For the same compound, the viability, T/C [28] was 89.7%, the viability, T/C [29] was 104% and the viability, T/C [30] was 103%. For the same compound, the viability, T/C [31] was 93.7%, the viability, T/C [32] was 78.3% and the viability, T/C [33] was 98.9%. It also gave a viability, T/C [34] of 97.6%, a viability, T/C [35] of 108% and a viability, T/C [36] of 78.4%.

— PubChem BioAssay AID1963836 (Molecular Pharmacology Branch, DTP, NCI, 2024)
